# Test: xn = mol fraction of the nth substance listed
# Conditions: 298 K, 101 kPa
structure (smiles),measurement,setting,value
O + CC[NH3+].O=[N+]([O-])[O-],viscosity,x1 = 1,0.89 mPa·s
CCCC[NH3+].O=[N+]([O-])[O-] + O,viscosity,x2 = 0.112,69.8 mPa·s
same,viscosity,x2 = 0.2,49.5 mPa·s
same,viscosity,x2 = 0.397,23.17 mPa·s
same,viscosity,x2 = 0.494,15.53 mPa·s
same,viscosity,x2 = 0.596,10.22 mPa·s
same,viscosity,x2 = 0.698,6.54 mPa·s
same,viscosity,x2 = 0.95,1.53 mPa·s
CC[NH3+].O=[N+]([O-])[O-] + O,viscosity,x2 = 0,37.5 mPa·s
same,viscosity,x2 = 0.1,27.33 mPa·s
same,viscosity,x2 = 0.198,19.84 mPa·s
same,viscosity,x2 = 0.294,14.51 mPa·s
same,viscosity,x2 = 0.394,10.37 mPa·s
same,viscosity,x2 = 0.5,7.16 mPa·s
same,viscosity,x2 = 0.6,4.98 mPa·s
same,viscosity,x2 = 0.799,2.27 mPa·s
same,viscosity,x2 = 0.9,1.47 mPa·s
